What all share (type): in vivo, Male Sprague-Dawley rats
Experiment [1] relates to Acetaminophen-Induced Liver Injury in Rat Model. The experiment can be described thus: Orally administrated extract and compound on acetaminophen-induced liver injury in rat model. To be noted: for increased activity of blood ALT induced by acetaminophen / increased activity of blood LDH induced by acetaminophen: once a day for 4 days; for central necrosis and inflammation of liver (histo-pathological examination): oral, acetaminophen-induced, FIG. 3. The method, then: (§1) Male Sprague-Dawley rats (Samtako Co. Korea) weighing 140-160 g were used in the experiment and were allowed to access to feed (Harlan, teklan, USA) and drinking water. All animals were maintained in a controlled environment with temperatures at 22±2° C. and humidity at 55±5% with 12 hours of light and dark cycles for at least one week prior to use.
24 hours after the end of treatment, the acetaminophen solution prepared in Reference Example (1.2 g/kg) was orally administrated into the rats to induce hepatotoxicity.
24 hours after the treatment, the abdominal cavity was excised to deliver liver organ and blood to test the effect of the inventive extract and compound obtained in Examples on liver injury.
The effect on the indicators of liver injury known in the art, i.e., ALT (R. Rej, Clin. Chem., 24, pp 1971-1979, 1978) and LDH (S. Sherlock et al., Blackwell Science, London, p 23, 2002) activity in rat blood was determined.
The histo-pathological examination on liver organ was performed to determine the effect of inventive extract and compound on the necrosis and inflammation of liver induced by acetaminophen.

Experiment [2] deals with GSH-Depleted Liver Injury in Rat Model. The experiment can be described thus: Effect on GSH-depleted (BSO) acetaminophen liver injury in rat model. The settings on record: for necrosis of hepatic cell: orally administrated. As to the method:
as §1
3 hours after the end of treatment, 2 mM/kg of BSO (buthionine sulfoximine) was intraperitoneally administrated to the rats to deplete GSH (glutathione) level of the rats. 1 hr after the treatment, the acetaminophen solution prepared in Reference Example (1.2 g/kg) was orally administrated into the rats to induce hepatotoxicity.
24 hours after the inducement, the survival rate of the rats was determined and the abdominal cavity was excised to deliver liver organ to test the effect of the inventive extract and compound obtained in Examples on liver injury.

Experiment [3] has as its system acetaminophen-induced hepatotoxicity in rats. Put plainly: Treating effect on liver injury (dosing after acetaminophen). To be noted: 50 mg/kg orally from 1 hour after acetaminophen, versus PEG400 (40%) negative control; FIG. 7. The method, then: as §1
The acetaminophen solution prepared in Reference Example (1.2 g/kg) was orally administrated into the rats to induce hepatotoxicity. […] All the testing rats had been starved for 24 hours prior to acetaminophen-administration.
24 hours after the inducement, the abdominal cavity was excised to deliver liver organ to test the effect of the inventive compound obtained in Examples on liver injury.

In experiment [4] the test system is Acetaminophen-Induced Liver Injury in Rat Model. The experiment can be described thus: Intravenously administrated extract and compound on acetaminophen-induced liver injury in rat model. The method, then: as §1
3 hours after the end of treatment, the acetaminophen solution prepared in Reference Example (1.2 g/kg) was orally administrated into the rats to induce hepatotoxicity.
24 hours after the inducement, the abdominal cavity was excised to deliver liver organ and blood to test the effect of the inventive extract and compound obtained in Examples on liver injury.

Setting [5] is: oral dose of 50 mg/kg and 100 mg/kg.
[6] abbreviates: GSH-depleted (BSO) + acetaminophen, FIG. 6b.
Setting [7] is: oral dose of 25 mg/kg and 50 mg/kg, FIG. 1.
Setting [8] is: intravenous dose of 5 mg/kg and 15 mg/kg, FIG. 4.

This note sets out measurements from patent publication US20090232919A1 (priority 2006, published 2009).

Marks after values point to notes of the source that are not given here.

For the compound `COC(=O)c1cc(OC)c2c(c1-c1c(C(=O)OC)cc(OC)c3c1OCO3)OCO2` [DDB, dimethyl-4,4′-dimethoxy-5,6,5′,6′-dimethylene dioxybiphenyl-2,2′-dicarboxylate], in experiment [1] (APAP, 50 mg/kg, p.o, n = 10), the “Central vein neighboring cell necrosis (N)” value is reported as 2.38 ± 0.5^, the “Hepatic cell degeneration (HD) Central Vein (CV)” value (“Hepatic cell degeneration … (CV)” below) stood at 0.4 ± 0.2, the “Hepatic cell degeneration (HD) Limbic region” value turned out to be 0 and the “Hepatic cell degeneration (HD) Middle Region” value is reported as 0.2 ± 0.2. Besides, in experiment [1] (APAP, 50 mg/kg, p.o, n = 10), the Inflammatory cell was 0^## and the “Survival ratio (%)” value is 100%. Further, in experiment [1] (setting [5]), the “increased activity of blood ALT induced by acetaminophen” value (from here on “increased activity of blood ALT induced”) is reported as “strikingly reduce” and the “increased activity of blood LDH induced by acetaminophen” value (from here on “increased activity of blood LDH induced”) is on record as “strikingly reduce”. The “central necrosis and inflammation of liver (histo-pathological examination)” value in experiment [1] is on record as “reduced little”. Moreover, in experiment [2] (setting [6]), the “necrosis of hepatic cell” value is given as “could not reduce”.
As to `O=C1C[C@@H](c2ccc(O)cc2)Oc2cc(O)ccc21` [LQ, liquiritigenin], the “necrosis of hepatic cell” value in experiment [3] is “more strikingly inhibited”. Besides, in experiment [1] (APAP, 50 mg/kg, p.o, n = 10), the “Central vein neighboring cell necrosis (N)” value turned out to be 0.8 ± 0.8, the “Hepatic cell degeneration … (CV)” value is recorded as 0.8 ± 0.8, the “Hepatic cell degeneration (HD) Limbic region” value was determined as 0.2 ± 0.2 and the “Hepatic cell degeneration (HD) Middle Region” value turned out to be 0.6 ± 0.6. The Inflammatory cell in experiment [1] (APAP, 50 mg/kg, p.o, n = 10) is 0^##. In experiment [1] (setting [7]), the “increased activity of blood ALT induced” value is on record as “significantly reduced” and the “increased activity of blood LDH induced” value is on record as “significantly reduced”. The “central necrosis and inflammation of liver (histo-pathological examination)” value in experiment [1] is reported as “strikingly reduced”. In experiment [2] (APAP + BSO, 15 mg/kg,i.v.), the “Hepatic cell degeneration … (CV)” value is recorded as 0.2 ± 0.2, the “Hepatic cell degeneration (HD) Limbic region” value was 2 ± 0.03 and the “Hepatic cell degeneration (HD) Middle Region” value was found to be 0.2 ± 0.2. In addition, in experiment [2] (APAP + BSO, 50 mg/kg, p.o), the “Hepatic cell degeneration … (CV)” value worked out at 1.5 ± 0.5, the “Hepatic cell degeneration (HD) Limbic region” value is 1.5 ± 0.5, the “Hepatic cell degeneration (HD) Middle Region” value is 1.5 ± 0.5 and the Inflammatory cell was 0. The survival rate result in experiment [2] (GSH-depleted (BSO) + acetaminophen, versus 26.7% without treatment) is listed as “strikingly increased”. Further, the hepatic injury result in experiment [2] (intravenously administrated for 2 days, GSH-depleted, FIG. 6b) is reported as “apparently inhibits”. The “necrosis of hepatic cell” value in experiment [2] (setting [6]) is given as “strikingly reduced”. In experiment [4] (APAP, 5 mg/kg, i. v), the “Central vein neighboring cell necrosis (N)” value is recorded as 0.2 ± 0.2, the “Hepatic cell degeneration … (CV)” value stood at 0.8 ± 0.4, the “Hepatic cell degeneration (HD) Limbic region” value is on record as 0 and the “Hepatic cell degeneration (HD) Middle Region” value is reported as 0.6 ± 0.4. The compound further showed an Inflammatory cell in experiment [4] (APAP, 5 mg/kg, i. v) of 0. In experiment [4] (setting [8]), the “increased activity of blood ALT induced” value is reported as “significantly reduced” and the “increased activity of blood LDH induced” value was “significantly reduced”. Besides, the “central necrosis and inflammation of liver” value in experiment [4] (intravenously administrated, FIG. 5) is given as “strikingly reduced”.
